According to patent US20080280879A1, “SUBSTITUTED HETEROCYCLIC DERIVATIVES AND THEIR PHARMACEUTICAL USE AND COMPOSITIONS” (priority 2007, published 2008):
≈ marks a conversion by molar mass, not a printed value.

Columns and labels:
Type in all cases: cell-based, Staphylococcus aureus
[1] = system: Staph aureus 1095 MRSA; assay: MIC, microtiter broth dilution (CLSI M7-A7), Assay 1, Table 12 column A, no serum; conditions: Assay 1, no serum; for MIC: Staphylococcus aureus, MRSA
Method in brief: (§1)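 Broth microdilution in microtiter trays per CLSI M7-A7, interpreted per M100-S16; MIC (μg/ml) is the lowest concentration preventing visible growth. Serum condition used Mueller-Hinton Broth with 50% pooled inactivated human serum. Repeated runs reported as geometric mean.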

[2] = system: Staph aureus 1146; assay: MIC, microtiter broth dilution (CLSI M7-A7), Assay 1, Table 12 column B, no serum; conditions: for MIC, column B: Staph aureus 1146, Assay 1, no serum; for MIC: Staphylococcus aureus, 1146, Staph aureus 1146, Assay 1, no serum
Method in brief: as §1

[3] = system: Staph aureus 1146; assay: MIC in Mueller-Hinton Broth with 50% pooled inactivated human serum, Assay 1, Table 12; conditions: for MIC, column C: Staph aureus 1146, Assay 1, 50% human serum; for MIC: Staphylococcus aureus, 1146, Staph aureus 1146, Assay 1, 50% human serum, read-out: MIC, column C
Method in brief: as §1

[4] = system: Staph aureus 2811; assay: MIC, microtiter broth dilution (CLSI M7-A7), Assay 1, Table 12 column D, no serum; conditions: for MIC, column D: Staph aureus 2811, Assay 1, no serum; for MIC: Staphylococcus aureus, 2811, Staph aureus 2811, Assay 1, no serum
Method in brief: as §1

[5] = system: Staph aureus 2812; assay: MIC, microtiter broth dilution (CLSI M7-A7), Assay 1, Table 12 column E, no serum; conditions: for MIC, column E: Staph aureus 2812, Assay 1, no serum; for MIC: Staphylococcus aureus, 2812, Staph aureus 2812, Assay 1, no serum
Method in brief: as §1

COc1ccc2nccc(C(O)CC[C@@H]3CCN(C4CC5CCCCCC54)C[C@@H]3C(=O)O)c2c1 (stereo partly drawn) [Example 53, (3R,4R)-1-[(1,7)-bicyclo[5.2.0]non-8-yl]-4-[3-hydroxy-3-(6-methoxyquinolin-4-yl)propyl] piperidine-3-carboxylic acid]
MIC, column A [1]: 16 µg/mL (≈ 34.3 µM)
MIC, column B [2]: >64 µg/mL
MIC, column C [3]: >64 µg/mL
MIC, column D [4]: 32 µg/mL (≈ 68.6 µM)
MIC, column E [5]: 16 µg/mL (≈ 34.3 µM)

COc1ccc(C2CC(N3CC[C@@H](CC[C@H](O)c4ccnc5ccc(OC)cc45)[C@@H](C(=O)O)C3)C2)c(F)c1 (stereo partly drawn) [Example 220, (3R,4R)-1-[3-(2-fluoro-4-methoxyphenyl)cyclobutyl]-4-[(3S)-3-hydroxy-3-(6-methoxyquinolin-4-yl)propyl]piperidine-3-carboxylic acid]
MIC [1]: 64 µg/mL (≈ 122 µM)
MIC [2]: 32 µg/mL (≈ 61.2 µM)
MIC [3]: > 64 µg/mL
MIC [4]: 16 µg/mL (≈ 30.6 µM)
MIC [5]: 32 µg/mL (≈ 61.2 µM)

COc1ccc2nccc([C@@H](O)CC[C@@H]3CCN(C4CC(c5ccc(Cl)cc5F)C4)C[C@@H]3C(=O)O)c2c1 (stereo partly drawn) [Example 65, (3R,4R)-1-[3-(4-chloro-2-fluorophenyl)cyclobutyl]-4-[(3S)-3-hydroxy-3-(6-methoxyquinolin-4-yl)propyl]piperidine-3-carboxylic acid]
MIC [1]: 1 µg/mL (≈ 1.9 µM)
MIC [2]: 0.25 µg/mL (≈ 0.474 µM)
MIC [3]: 16 µg/mL (≈ 30.4 µM)
MIC [4]: 0.25 µg/mL (≈ 0.474 µM)
MIC [5]: 1 µg/mL (≈ 1.9 µM)

COc1ccc2nccc([C@@H](O)CC[C@@H]3CCN(C4CC(c5ccccc5)C4)C[C@@H]3c3nn[nH]n3)c2c1 (stereo partly drawn) [Example 224, (S)-1-(6-methoxyquinolin-4-yl)-3-((3R,4R)-1-(3-phenylcyclobutyl)-3-(2H-tetrazol-5-yl)piperidin-4-yl)propan-1-ol]
MIC [1]: 2 µg/mL (≈ 4.01 µM)
MIC [2]: 0.25 µg/mL (≈ 0.501 µM)
MIC [3]: 8 µg/mL (≈ 16 µM)
MIC [4]: 0.25 µg/mL (≈ 0.501 µM)
MIC [5]: 0.5 µg/mL (≈ 1 µM)

COc1ccc2ncc(F)c(C(O)COC3(C(=O)O)CCN(C4CC(c5ccccc5)C4)CC3)c2c1 (stereo not drawn) [Example 146, 4-(2-(3-fluoro-6-methoxyquinolin-4-yl)-2-hydroxyethoxy)-1-(3-phenylcyclobutyl)piperidine-4-carboxylic acid]
MIC [1]: 32 µg/mL (≈ 64.7 µM)
MIC [2]: 16 µg/mL (≈ 32.4 µM)
MIC [3]: > 64 µg/mL
MIC [4]: 32 µg/mL (≈ 64.7 µM)
MIC [5]: 32 µg/mL (≈ 64.7 µM)

COc1ccc2nccc([C@@H](O)CC[C@@H]3CCN(C4CC(c5cccc(F)c5C)C4)C[C@@H]3C(=O)O)c2c1 (stereo partly drawn) [Example 57, (3R,4R)-1-[3-(3-fluoro-2-methylphenyl)cyclobutyl]-4-[(3S)-3-hydroxy-3-(6-methoxyquinolin-4-yl)propyl]piperidine-3-carboxylic acid]
MIC [1]: 0.5 µg/mL (≈ 0.987 µM)
MIC [2]: 0.25 µg/mL (≈ 0.493 µM)
MIC [3]: 8 µg/mL (≈ 15.8 µM)
MIC [4]: 0.25 µg/mL (≈ 0.493 µM)
MIC [5]: 0.25 µg/mL (≈ 0.493 µM)

COc1ccc2nccc([C@@H](O)CC[C@@H]3CCN(C4CC(c5cc(C)ccc5F)C4)C[C@@H]3C(=O)O)c2c1 (stereo partly drawn) [Example 61, (3R,4R)-1-[3-(2-fluoro-5-methylphenyl)cyclobutyl]-4-[(3S)-3-hydroxy-3-(6-methoxyquinolin-4-yl)propyl]piperidine-3-carboxylic acid]
MIC [1]: 0.125 µg/mL (≈ 0.247 µM)
MIC [2]: ≤ 0.0625 µg/mL
MIC [3]: 2 µg/mL (≈ 3.95 µM)
MIC [4]: ≤ 0.0625 µg/mL
MIC [5]: ≤ 0.0625 µg/mL

COc1ccc2nccc([C@@H](O)CC[C@@H]3CCN(C4CC(c5c(F)cccc5F)C4C)C[C@@H]3C(=O)O)c2c1 (stereo partly drawn) [Example 66, (3R,4R)-1-[(2,3)-3-(2,6-difluorophenyl)-2-methylcyclobutyl]-4-[(3S)-3-hydroxy-3-(6-methoxyquinolin-4-yl)propyl]piperidine-3-carboxylic acid]
MIC, column A [1]: 1 µg/mL (≈ 1.91 µM)
MIC, column B [2]: 0.125 µg/mL (≈ 0.238 µM)
MIC, column C [3]: 4 µg/mL (≈ 7.62 µM)
MIC, column D [4]: 0.125 µg/mL (≈ 0.238 µM)
MIC, column E [5]: 0.25 µg/mL (≈ 0.477 µM)

COc1ccc2ncc(F)c([C@@H](O)CNC3(C(=O)O)CCCN(C4CC(c5ccccc5)C4)CC3)c2c1 (single isomer, unassigned) [Example 149]
MIC [1]: 8 µg/mL (≈ 15.8 µM)
MIC [2]: 2 µg/mL (≈ 3.94 µM)
MIC [3]: 4 µg/mL (≈ 7.88 µM)
MIC [4]: 2 µg/mL (≈ 3.94 µM)
MIC [5]: 2 µg/mL (≈ 3.94 µM)

COc1ccc2ncc(Cl)c(CCCC3(C(=O)O)CCN(C[C@@H]4C[C@H]4c4cc(F)ccc4F)C3)c2c1 (stereo partly drawn) [Example 198, 3-[3-(3-chloro-6-methoxyquinolin-4-yl)propyl]-1-{[(1R,2R)-2-(2,5-difluorophenyl)cyclopropyl]methyl} pyrrolidine-3-carboxylic acid]
MIC [1]: 0.125 µg/mL (≈ 0.243 µM)
MIC [2]: < 0.0625 µg/mL
MIC [3]: > 64 µg/mL
MIC [4]: < 0.0625 µg/mL
MIC [5]: < 0.0625 µg/mL

COc1ccc2ncc(F)c(CCCC3(C(=O)O)CCN(C4CC(c5c(F)cccc5F)C4)C3)c2c1 (stereo not drawn) [Example 180, 1-[3-(2,6-difluorophenyl)cyclobutyl]-3-[3-(3-fluoro-6-methoxyquinolin-4-yl)propyl]pyrrolidine-3-carboxylic acid]
MIC, column A [1]: <0.0625 µg/mL
MIC, column B [2]: <0.0625 µg/mL
MIC, column C [3]: 16.0 µg/mL (≈ 32.1 µM)
MIC, column D [4]: <0.0625 µg/mL
MIC, column E [5]: <0.0625 µg/mL

COc1ccc2nccc(C(O)CC[C@@H]3CCN(C4CC(c5nc(CC6CC6)no5)C4)C[C@@H]3C(=O)O)c2c1 (stereo partly drawn) [Example 170, (3R,4R)-1-{3-[3-(cyclopropylmethyl)-1,2,4-oxadiazol-5-yl]cyclobutyl}-4-[3-hydroxy-3-(6-methoxyquinolin-4-yl)propyl]piperidine-3-carboxylic acid]
MIC [1]: > 64 µg/mL
MIC [2]: > 64 µg/mL
MIC [3]: > 64 µg/mL
MIC [4]: > 64 µg/mL
MIC [5]: > 64 µg/mL

COc1ccc2ncc(F)c(C(O)CC[C@@H]3CCN(C4CC(c5ccccc5)C4)C[C@@H]3C(=O)O)c2c1 (single isomer, unassigned) [Example 16]
MIC, column A [1]: 0.125 µg/mL (≈ 0.254 µM)
MIC, column B [2]: <=.0884 μg/ml
MIC, column C [3]: 1 µg/mL (≈ 2.03 µM)
MIC, column D [4]: 0.125 µg/mL (≈ 0.254 µM)
MIC, column E [5]: 0.125 µg/mL (≈ 0.254 µM)

CCOCCc1noc(C2CC(N3CC[C@@H](CCC(O)c4ccnc5ccc(OC)cc45)[C@@H](C(=O)O)C3)C2)n1 (stereo partly drawn) [Example 168, (3R,4R)-1-{3-[3-(2-ethoxyethyl)-1,2,4-oxadiazol-5-yl]cyclobutyl}-4-[3-hydroxy-3-(6-methoxyquinolin-4-yl)propyl]piperidine-3-carboxylic acid]
MIC [1]: > 64 µg/mL
MIC [2]: > 64 µg/mL
MIC [3]: > 64 µg/mL
MIC [4]: > 64 µg/mL
MIC [5]: > 64 µg/mL

COc1ccc2nccc(C(O)CC[C@@H]3CCN(C4CC(c5nnc(C)o5)C4)C[C@@H]3C(=O)O)c2c1 (stereo partly drawn) [Example 110, (3R,4R)-4-[3-hydroxy-3-(6-methoxyquinolin-4-yl)propyl]-1-[3-(5-methyl-1,3,4-oxadiazol-2-yl)cyclobutyl]piperidine-3-carboxylic acid]
MIC [1]: > 64 µg/mL
MIC [2]: 32 µg/mL (≈ 66.6 µM)
MIC [3]: > 64 µg/mL
MIC [4]: > 64 µg/mL
MIC [5]: > 64 µg/mL

COc1ccc2ncc(Cl)c(C(O)CC[C@@H]3CCN(C4CC(c5cc(F)ccc5F)C4)C[C@@H]3C(=O)O)c2c1 (stereo partly drawn) [Example 186, (3R,4R)-4-[3-(3-chloro-6-methoxyquinolin-4-yl)-3-hydroxypropyl]-1-[3-(2,5-difluorophenyl)cyclobutyl]piperidine-3-carboxylic acid]
MIC, column A [1]: <0.0625 µg/mL
MIC [2]: < 0.0625 µg/mL
MIC, column C [3]: 2.00 µg/mL (≈ 3.67 µM)
MIC [4]: < 0.0625 µg/mL
MIC, column E [5]: <0.0625 µg/mL

COc1ccc2ncc(Cl)c([C@@H](O)CNC3(C(=O)O)CCCN(C4CC(c5ccccc5)C4)CC3)c2c1 (single isomer, unassigned) [Example 148]
MIC, column A [1]: 4 µg/mL (≈ 7.63 µM)
MIC, column B [2]: 1 µg/mL (≈ 1.91 µM)
MIC, column C [3]: 4 µg/mL (≈ 7.63 µM)
MIC, column D [4]: 1 µg/mL (≈ 1.91 µM)
MIC, column E [5]: 1 µg/mL (≈ 1.91 µM)

COc1ccc2nccc(C(O)CC[C@@H]3CCN(C4CC(c5nc(C6CC6)no5)C4)C[C@@H]3C(=O)O)c2c1 (stereo partly drawn) [Example 165, (3R,4R)-1-[3-(3-cyclopropyl-1,2,4-oxadiazol-5-yl)cyclobutyl]-4-[3-hydroxy-3-(6-methoxyquinolin-4-yl)propyl]piperidine-3-carboxylic acid]
MIC [1]: > 64 µg/mL
MIC [2]: 32 µg/mL (≈ 63.2 µM)
MIC [3]: > 64 µg/mL
MIC [4]: 32 µg/mL (≈ 63.2 µM)
MIC [5]: 64 µg/mL (≈ 126 µM)
